Columns and labels:
Assay type in all cases: functional
Trypanosoma cruzi [1] = test: Compound was evaluated for its percent inhibition of growth of Trypanosoma cruzi at of 50 uM/L
Trypanosoma cruzi [2] = test: Compound was evaluated for its percent inhibition of thymidine incorporation in Trypanosoma cruzi without killing the cells at 25 degree Celsius and 50 uM/L
Trypanosoma cruzi [3] = test: Compound was evaluated for its percent inhibition of thymidine incorporation in Trypanosoma cruzi without killing the cells at 25 degree Celsius and 100 uM/L
Trypanosoma cruzi [4] = test: Compound was evaluated for its percent inhibition of growth of Trypanosoma cruzi at 100 uM/L
Trypanosoma cruzi [5] = test: Compound was evaluated for its percent inhibition for thymidine incorporation in Trypanosoma cruzi without killing the cells at 25 degree Celsius and 17 uM/L

Question: For `COC(=O)OC/C=C(\C)CC/C=C(\C)CCC1OC1(C)C` (stereo unspecified), which inhibition at 50 µM (Trypanosoma cruzi [1]) is on record?
Answer: 44.8%

Question: And the Inhibition (Trypanosoma cruzi [2])?
Answer: 25.7%

Question: What about the Inhibition (Trypanosoma cruzi [3]) of the same compound?
Answer: 46.3%

Question: And the inhibition at 100 µM (Trypanosoma cruzi [4])?
Answer: 62.8%

Question: With `CCSC(=O)OC/C=C(\C)CC/C=C(\C)CCC1OC1(C)C` (stereo unspecified) as the compound, how does the inhibition at 50 µM (Trypanosoma cruzi [1]) read?
Answer: 90.7%

Question: And the Inhibition (Trypanosoma cruzi [2])?
Answer: 80.7%

Question: And the Inhibition (Trypanosoma cruzi [3])?
Answer: 95.6%

Question: And the inhibition at 100 µM (Trypanosoma cruzi [4])?
Answer: 99%

Question: How did the Inhibition (Trypanosoma cruzi [5]) turn out when `CC(C)=CCC/C(C)=C/CCCOC(=O)OCC(C)C` was run?
Answer: 50.6%

Question: What about the inhibition at 50 µM (Trypanosoma cruzi [1]) of the same compound?
Answer: 57.3%

Question: What about the Inhibition (Trypanosoma cruzi [2]) of the same compound?
Answer: 88.4%

Question: And the Inhibition (Trypanosoma cruzi [3])?
Answer: 100.1%

Question: What about the inhibition at 100 µM (Trypanosoma cruzi [4]) of the same compound?
Answer: 94%

Question: `CC/C(C)=C\CC/C(C)=C/CCC(C)OC(=O)OCC(C)C` (stereo unspecified) was tested. Which inhibition at 50 µM (Trypanosoma cruzi [1]) did it give?
Answer: 56.6%

Question: And the Inhibition (Trypanosoma cruzi [2])?
Answer: 62.8%

Question: What about the Inhibition (Trypanosoma cruzi [3]) of the same compound?
Answer: 70.8%

Question: And the inhibition at 100 µM (Trypanosoma cruzi [4])?
Answer: 68%

Question: What does the source list for `CC(C)=CCC/C(C)=C/CCC(C)OC(=O)OCC(C)C` (stereo unspecified)?
Answer: inhibition at 50 µM (Trypanosoma cruzi [1]): 70.8%; Inhibition (Trypanosoma cruzi [2]): 73.3%; Inhibition (Trypanosoma cruzi [3]): 95.8%; inhibition at 100 µM (Trypanosoma cruzi [4]): 89.6%

Question: Which inhibition at 50 µM (Trypanosoma cruzi [1]) does the source give for `COC(C)(C)CCCC(C)C/C=C/C(C)=C/C(=O)OC(C)C` (stereo unspecified) here?
Answer: 60%

Question: And the Inhibition (Trypanosoma cruzi [2])?
Answer: 70.5%

Question: What about the Inhibition (Trypanosoma cruzi [3]) of the same compound?
Answer: 86.5%

Question: And the inhibition at 100 µM (Trypanosoma cruzi [4])?
Answer: 92.5%

Question: With `CCSC(=O)OC(C)CC/C=C(\C)CC/C=C(/C)CC` (stereo unspecified) as the compound, how does the inhibition at 50 µM (Trypanosoma cruzi [1]) read?
Answer: 50.7%

Question: What about the Inhibition (Trypanosoma cruzi [2]) of the same compound?
Answer: 65.3%

Question: And the Inhibition (Trypanosoma cruzi [3])?
Answer: 75.2%

Question: And the inhibition at 100 µM (Trypanosoma cruzi [4])?
Answer: 79.4%

Question: For `C=CCOc1ccc(Oc2ccccc2)cc1`, which inhibition at 50 µM (Trypanosoma cruzi [1]) is on record?
Answer: 80.8%

Question: And the Inhibition (Trypanosoma cruzi [2])?
Answer: 60.9%

Question: And the Inhibition (Trypanosoma cruzi [3])?
Answer: 83.9%

Question: What about the inhibition at 100 µM (Trypanosoma cruzi [4]) of the same compound?
Answer: 95.4%

Question: Which results are given for `CCSC(=O)OC/C=C(\C)CC/C=C(\C)CCC=C(C)C`?
Answer: inhibition at 50 µM (Trypanosoma cruzi [1]): 69.3%; Inhibition (Trypanosoma cruzi [2]): 57.9%; Inhibition (Trypanosoma cruzi [3]): 72.6%; inhibition at 100 µM (Trypanosoma cruzi [4]): 94.2%

Question: With `C/C(=C\CCC(C)OC(=O)OCC(C)C)CCC1OC1(C)C` (stereo unspecified) as the compound, how does the inhibition at 50 µM (Trypanosoma cruzi [1]) read?
Answer: 33.4%

Question: And the Inhibition (Trypanosoma cruzi [2])?
Answer: 50.8%

Question: What about the Inhibition (Trypanosoma cruzi [3]) of the same compound?
Answer: 70%

Question: What about the inhibition at 100 µM (Trypanosoma cruzi [4]) of the same compound?
Answer: 68%

Question: For `CC(C)(C)OC(=O)CC(O)COc1ccc(Oc2ccccc2)cc1` (stereo unspecified), which inhibition at 50 µM (Trypanosoma cruzi [1]) is on record?
Answer: 67.2%

Question: And the Inhibition (Trypanosoma cruzi [2])?
Answer: 70.6%

Question: And the Inhibition (Trypanosoma cruzi [3])?
Answer: 93.5%

Question: And the inhibition at 100 µM (Trypanosoma cruzi [4])?
Answer: 98.8%

Question: For `C/C=C\CC/C(C)=C/CCC(C)OC(=O)OCC(C)C` (stereo unspecified), which inhibition at 50 µM (Trypanosoma cruzi [1]) is on record?
Answer: 47.6%

Question: What about the Inhibition (Trypanosoma cruzi [2]) of the same compound?
Answer: 70.1%

Question: And the Inhibition (Trypanosoma cruzi [3])?
Answer: 89.6%

Question: And the inhibition at 100 µM (Trypanosoma cruzi [4])?
Answer: 75.4%

Question: Which results are given for `c1ccc(Oc2ccc(OCCOC3CCCCO3)cc2)cc1` (stereo unspecified)?
Answer: inhibition at 50 µM (Trypanosoma cruzi [1]): 57%; Inhibition (Trypanosoma cruzi [2]): 40.8%; Inhibition (Trypanosoma cruzi [3]): 86.2%; inhibition at 100 µM (Trypanosoma cruzi [4]): 90.6%

Question: For `COC(=O)OCCC/C=C(\C)CCC=C(C)C`, which inhibition at 50 µM (Trypanosoma cruzi [1]) is on record?
Answer: 41.3%

Question: What about the Inhibition (Trypanosoma cruzi [2]) of the same compound?
Answer: 66.3%

Question: And the Inhibition (Trypanosoma cruzi [3])?
Answer: 95.3%

Question: And the inhibition at 100 µM (Trypanosoma cruzi [4])?
Answer: 56%

Question: What does the source list for `COC(=O)OC(C)CC/C=C(\C)CCC=C(C)C` (stereo unspecified)?
Answer: inhibition at 50 µM (Trypanosoma cruzi [1]): 51%; Inhibition (Trypanosoma cruzi [2]): 75.6%; Inhibition (Trypanosoma cruzi [3]): 91.6%; inhibition at 100 µM (Trypanosoma cruzi [4]): 97.5%
